“And” between values parts separate entries of the source, which are not always exact repeats. Equal values may be shown once.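 Method: 48-hour compound exposure of cells in 96-well plates, five concentrations, linear interpolation of endpoints. GI50: concentration for 50% inhibition of growth. The concentration for full growth arrest is given as TGI.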
The compounds below were run on 786-0 renal (assay: NCI tumour cell line growth inhibition, 48 h).

| Compound | GI50 | TGI |
| --- | --- | --- |
| COc1cc(NCc2ccc3nc(N)nc(N)c3c2C)cc(OC)c1OC (tested in a mixture with another compound) | 0.0145 µM and 0.025 µM | – |
| O=C(O)Cc1cc(Cl)ccc1O | – | > 100 µM |
| Cc1nn(-c2ccc(Cl)cc2)c2nc3c(nc12)C(=O)c1ccccc1-3 | 75.3 µM | > 100 µM |
| COc1c(OC[C@H](O)CN2CCOCC2)ccc2c3n(c(=NC(=O)c4cccnc4C)nc12)CCN3 | 0.399 µM | > 50 µM |
| O=C(c1ccccc1Br)C(F)(F)F | – | > 100 µM |
| COc1ccc(-c2nc3ccc(-c4nc5ccc(N6CCN(c7ccccc7)CC6)cc5[nH]4)cc3[nH]2)cc1OC | 1.62 µM | 3.12 µM |
| O=C1OCC2=C1C(c1cccc(Br)c1)c1cc3c(cc1N2CCO)CCC3 (stereo unspecified) | 0.201 µM | 6.22 µM |
| Nc1nc(/C=C\c2ccc([N+](=O)[O-])s2)nc(N2CCCC2)n1 | 10.8 µM | 23.6 µM |
| Clc1ccc2[nH]cc(-c3nnnn3-c3ccccc3)c2c1 | 29.6 µM | > 100 µM |
| CC(=O)OC12C=CC(=O)N1c1ccccc1C(=O)O2 (stereo unspecified) | – | > 100 µM |
| Oc1cccnc1[Se] | – | 31.7 µM |
| COc1cccc2c1C(=O)c1c(O)c3c(c(O)c1C2=O)C[C@](O)(C(=O)CO)C[C@H]3O[C@@H]1C[C@@H](NC(=O)CCCCCN(C)C2(c3ccc(F)cc3)CC3CCC2C3)[C@H](O)[C@@H](C)O1 (stereo partly specified) | 0.82 µM | 1.61 µM |

The compounds below were run on A498 renal (assay: NCI tumour cell line growth inhibition, 48 h).

| Compound | TGI | GI50 |
| --- | --- | --- |
| COc1cc(NCc2ccc3nc(N)nc(N)c3c2C)cc(OC)c1OC (tested in a mixture with another compound) | 49.5 µM | – |
| O=C(O)Cc1cc(Cl)ccc1O | > 100 µM | – |
| Cc1nn(-c2ccc(Cl)cc2)c2nc3c(nc12)C(=O)c1ccccc1-3 | > 100 µM | 31.7 µM |
| COc1c(OC[C@H](O)CN2CCOCC2)ccc2c3n(c(=NC(=O)c4cccnc4C)nc12)CCN3 | 1.85 µM | 0.167 µM |
| O=C(c1ccccc1Br)C(F)(F)F | > 100 µM | – |
| COc1ccc(-c2nc3ccc(-c4nc5ccc(N6CCN(c7ccccc7)CC6)cc5[nH]4)cc3[nH]2)cc1OC | 9.63 µM | 2.93 µM |
| O=C1OCC2=C1C(c1cccc(Br)c1)c1cc3c(cc1N2CCO)CCC3 (stereo unspecified) | 0.199 µM | 0.0155 µM |
| Nc1nc(/C=C\c2ccc([N+](=O)[O-])s2)nc(N2CCCC2)n1 | 34.6 µM | 16.6 µM |
| Clc1ccc2[nH]cc(-c3nnnn3-c3ccccc3)c2c1 | 36.8 µM | 8.39 µM |
| CC(=O)OC12C=CC(=O)N1c1ccccc1C(=O)O2 (stereo unspecified) | > 100 µM | > 100 µM |
| COc1cccc2c1C(=O)c1c(O)c3c(c(O)c1C2=O)C[C@](O)(C(=O)CO)C[C@H]3O[C@@H]1C[C@@H](NC(=O)CCCCCN(C)C2(c3ccc(F)cc3)CC3CCC2C3)[C@H](O)[C@@H](C)O1 (stereo partly specified) | 12.4 µM | 5.92 µM |

What follows are compounds tested on A549 NSCLC (assay: NCI tumour cell line growth inhibition, 48 h).

| Compound | GI50 | TGI |
| --- | --- | --- |
| COc1cc(NCc2ccc3nc(N)nc(N)c3c2C)cc(OC)c1OC (tested in a mixture with another compound) | 0.000138 µM | 21.9 µM |
| O=C(O)Cc1cc(Cl)ccc1O | – | > 100 µM |
| Cc1nn(-c2ccc(Cl)cc2)c2nc3c(nc12)C(=O)c1ccccc1-3 | > 100 µM | > 100 µM |
| COc1c(OC[C@H](O)CN2CCOCC2)ccc2c3n(c(=NC(=O)c4cccnc4C)nc12)CCN3 | 0.826 µM | > 50 µM |
| O=C(c1ccccc1Br)C(F)(F)F | – | > 100 µM |
| COc1ccc(-c2nc3ccc(-c4nc5ccc(N6CCN(c7ccccc7)CC6)cc5[nH]4)cc3[nH]2)cc1OC | 2.03 µM | 6.73 µM |
| O=C1OCC2=C1C(c1cccc(Br)c1)c1cc3c(cc1N2CCO)CCC3 (stereo unspecified) | 0.133 µM | 5.54 µM |
| Nc1nc(/C=C\c2ccc([N+](=O)[O-])s2)nc(N2CCCC2)n1 | 2.97 µM | 22.9 µM |
| Clc1ccc2[nH]cc(-c3nnnn3-c3ccccc3)c2c1 | 20.8 µM | > 100 µM |
| CC(=O)OC12C=CC(=O)N1c1ccccc1C(=O)O2 (stereo unspecified) | – | > 100 µM |
| Oc1cccnc1[Se] | – | > 100 µM |

These compounds were tested on BT-549 breast (assay: NCI tumour cell line growth inhibition, 48 h).

| Compound | GI50 | TGI |
| --- | --- | --- |
| COc1cc(NCc2ccc3nc(N)nc(N)c3c2C)cc(OC)c1OC (tested in a mixture with another compound) | 0.0611 µM | 34.2 µM and 45.4 µM |
| O=C(O)Cc1cc(Cl)ccc1O | – | > 100 µM |
| Cc1nn(-c2ccc(Cl)cc2)c2nc3c(nc12)C(=O)c1ccccc1-3 | > 100 µM | > 100 µM |
| COc1c(OC[C@H](O)CN2CCOCC2)ccc2c3n(c(=NC(=O)c4cccnc4C)nc12)CCN3 | 0.365 µM | 46.6 µM |
| O=C(c1ccccc1Br)C(F)(F)F | – | > 100 µM |
| COc1ccc(-c2nc3ccc(-c4nc5ccc(N6CCN(c7ccccc7)CC6)cc5[nH]4)cc3[nH]2)cc1OC | 3.31 µM | 10.9 µM |
| O=C1OCC2=C1C(c1cccc(Br)c1)c1cc3c(cc1N2CCO)CCC3 (stereo unspecified) | 0.209 µM | 6.5 µM |
| Nc1nc(/C=C\c2ccc([N+](=O)[O-])s2)nc(N2CCCC2)n1 | 7.17 µM | 20.9 µM |
| Clc1ccc2[nH]cc(-c3nnnn3-c3ccccc3)c2c1 | 22.2 µM | 68.9 µM |
| CC(=O)OC12C=CC(=O)N1c1ccccc1C(=O)O2 (stereo unspecified) | > 100 µM | > 100 µM |
| Oc1cccnc1[Se] | – | > 100 µM |
| COc1cccc2c1C(=O)c1c(O)c3c(c(O)c1C2=O)C[C@](O)(C(=O)CO)C[C@H]3O[C@@H]1C[C@@H](NC(=O)CCCCCN(C)C2(c3ccc(F)cc3)CC3CCC2C3)[C@H](O)[C@@H](C)O1 (stereo partly specified) | 5.3 µM | 14.2 µM |

The compounds below were run on HT29 colon (assay: NCI tumour cell line growth inhibition, 48 h).

| Compound | TGI | GI50 |
| --- | --- | --- |
| COc1cc(NCc2ccc3nc(N)nc(N)c3c2C)cc(OC)c1OC (tested in a mixture with another compound) | 41.9 µM | – |
| O=C(O)Cc1cc(Cl)ccc1O | > 100 µM | – |
| Cc1nn(-c2ccc(Cl)cc2)c2nc3c(nc12)C(=O)c1ccccc1-3 | > 100 µM | > 100 µM |
| COc1c(OC[C@H](O)CN2CCOCC2)ccc2c3n(c(=NC(=O)c4cccnc4C)nc12)CCN3 | > 50 µM | 0.217 µM |
| O=C(c1ccccc1Br)C(F)(F)F | > 100 µM | – |
| COc1ccc(-c2nc3ccc(-c4nc5ccc(N6CCN(c7ccccc7)CC6)cc5[nH]4)cc3[nH]2)cc1OC | 2.68 µM | 1.2 µM |
| O=C1OCC2=C1C(c1cccc(Br)c1)c1cc3c(cc1N2CCO)CCC3 (stereo unspecified) | 1.3 µM | 0.109 µM |
| Nc1nc(/C=C\c2ccc([N+](=O)[O-])s2)nc(N2CCCC2)n1 | 14.8 µM | 2.97 µM |
| Clc1ccc2[nH]cc(-c3nnnn3-c3ccccc3)c2c1 | > 70.9 µM | 11.9 µM |
| CC(=O)OC12C=CC(=O)N1c1ccccc1C(=O)O2 (stereo unspecified) | > 100 µM | – |
| Oc1cccnc1[Se] | > 100 µM | – |
| COc1cccc2c1C(=O)c1c(O)c3c(c(O)c1C2=O)C[C@](O)(C(=O)CO)C[C@H]3O[C@@H]1C[C@@H](NC(=O)CCCCCN(C)C2(c3ccc(F)cc3)CC3CCC2C3)[C@H](O)[C@@H](C)O1 (stereo partly specified) | 1.5 µM | 0.676 µM |

Reference: PubChem BioAssay (NCI)
